Assay results published in patent US20240082282A1 (priority 2020, published 2024).
Values after ≈ are worked out from the molar mass of the structure shown. Where two headings read alike, the source gives them in different places.

Experiments:
[1] = system: Fusobacterium nucleatum KLE 2428; type: cell-based; settings: Fusobacterium nucleatum KLE 2428, anaerobic, stool isolate; for MIC: KLE2428, read-out: Minimum inhibitory concentration (MIC)
[2] = system: Clostridium tertium KLE 2303; type: cell-based; settings: Clostridium tertium KLE 2303, anaerobic, stool isolate; for MIC: KLE2303, read-out: Minimum inhibitory concentration (MIC)
[3] = system: Clostridium perfringens KLE 2326; test: microbe, parasite or virus in culture; type: cell-based; settings: for MIC: Clostridium perfringens, KLE2326, read-out: Minimum inhibitory concentration (MIC)
[4] = system: Shigella sonnei ATCC 25931; type: cell-based
Escherichia coli MG1655 = type: cell-based
[5] = system: Streptococcus sanguinis KLE 2374; type: cell-based; settings: Streptococcus sanguinis KLE 2374, anaerobic, stool isolate; for MIC: KLE2374, read-out: Minimum inhibitory concentration (MIC)
[6] = system: Lactobacillus reuteri ATCC 23272; type: cell-based
[7] = system: Bacteroides vulgatus KLE 2381; type: cell-based; settings: Bacteroides vulgatus KLE 2381, anaerobic, stool isolate; for MIC: Phocaeicola vulgatus, KLE2381, read-out: Minimum inhibitory concentration (MIC)
[8] = system: Bacteroides eggerthii KLE 2382; type: cell-based; settings: Bacteroides eggerthii KLE 2382, anaerobic, stool isolate; for MIC: KLE2382, read-out: Minimum inhibitory concentration (MIC)
[9] = system: Enterobacter cloacae ATCC 13047; type: cell-based; settings: Enterobacter cloacae ATCC 13047, anaerobic; for MIC: ATCC13047, read-out: Minimum inhibitory concentration (MIC)
[10] = system: Borrelia burgdorferi BbP1286; test: microbe, parasite or virus in culture; settings: Borreliella burgdorferi, BBP1286, read-out: Minimum inhibitory concentration (MIC)
[11] = system: B. burgdorferi overexpressing bmpD (Bb1286+pJSB275m_bmpD); test: MIC of B. burgdorferi overexpressing bmpD; type: cell-based; settings: for Change of MIC on overexpression of bmpD in B. burgdorferi: normalized to wild-type B. burgdorferi, IPTG-independent
B. burgdorferi N40 = test: Bait experiment in infected mice; type: in vivo, C3H mice; settings: for B. burgdorferi culture (% positive) / Mean # of B. burgdorferi/10 mg of skin tissue (qPCR): bait once a day for 5 days; for Culture positive (%): C3H, bait, 5 days, whole ear culture
Procedure: Mice were infected with B. burgdorferi.
To prepare the mouse bait, 2 g of Bait formulation 3 (Food source), 0.5 g freshly ground peanut butter (Whole foods), 35 μl of green food coloring mix (Whole foods) were added into a 60 mm Petri dish. Boiling water (4 mL) was added and mixed with a spatula. The mixture was then dispensed into wells of a 96 well plate with a spatula such that about ⅔rd of the well was full. Antibiotics or vehicle were added at appropriate volume and mixed with a pipette tip. Added volume was kept below 60 μL per well. The bait was allowed to air dry/solidify for a few hours and the prepared baits were stored at 4° C. until use.
To ensure that the bait would be consumed, mice were housed individually with their mouse chow withheld during treatment. The doses used in mice were matched to the pharmacokinetic profile of humans given ceftriaxone 1 g every 12 hours (Sai Life Sciences Ltd, India) and doxycycline 100 mg every 12 hours.
Skin was used for liquid culture, and RNA extraction. All other tissues were used for RNA extraction. The growth of B. burgdorferi in 10 day liquid cultures was detected by dark field microscopy with a 100× objective.

B. turcica KLEX1 = test: MIC of hygromycin A resistant mutant; type: cell-based
B. burgdorferi B31 KLEX2 = test: MIC of hygromycin A resistant mutant; type: cell-based
B. burgdorferi = test: Efficacy of hygromycin A in Peromyscus mice; type: in vivo; settings: Peromyscus leucopus, subcutaneous, twice a day, 5 days
Source text: Mice were sacrificed on Day 11 and the heart, ankle, and ear were taken for culture. Cultures were monitored by darkfield microscopy for 4 weeks or until positive.

HepG2 = settings: HepG2, alamar blue, 72 hours
[12] = system: Brachyspira (formerly Treponema) hyodysenteriae; settings: report of a group from Japan; cited from earlier work
[13] = system: Leptospira interrogans ATCC BAA-1198
[14] = system: E. coli ΔtolC (no efflux); test: MIC of E. coli mutant strains
[15] = system: E. coli ΔtolC-Pore (no efflux, hyperporinated); test: MIC of E. coli mutant strains
[16] = system: E. coli ΔTolC+pBAD30 bmpD; test: MIC of E. coli overexpressing bmpD; settings: arabinose induced
Treponema pallidum = test: MIC, T. pallidum in co-culture with rabbit Sf1Ep cells
[17] = ATCC25931, Shigella sonnei ATCC 25931, anaerobic, read-out: Minimum inhibitory concentration (MIC)
[18] = read-out: Minimum inhibitory concentration (MIC)
[19] = Limosilactobacillus reuteri, ATCC23272, Lactobacillus reuteri ATCC 23272, anaerobic, read-out: Minimum inhibitory concentration (MIC)
[20] = Borreliella garinii, read-out: Minimum inhibitory concentration (MIC)

For CC1(C)S[C@@H]2[C@H](NC(=O)[C@H](N)c3ccc(O)cc3)C(=O)N2[C@H]1C(=O)O [Amoxicillin], the MIC [1] was 2 µg/mL (≈ 5.47 µM), the MIC [2] was 32 µg/mL (≈ 87.6 µM) and the MIC [3] was 0.12 µg/mL (≈ 0.328 µM). It also gave an MIC [4, 17] of 2 µg/mL (≈ 5.47 µM), an MIC (Escherichia coli MG1655; [18]) of 16 µg/mL (≈ 43.8 µM) and an MIC [5] of 2 µg/mL (≈ 5.47 µM). The MIC [6, 19] was 4 µg/mL (≈ 10.9 µM), the MIC [7] was 128 µg/mL (≈ 350 µM) and the MIC [8] was 0.5 µg/mL (≈ 1.37 µM). The MIC [9] was > 128 µg/mL, the MIC [10] was 0.12 µg/mL (≈ 0.328 µM) and the MIC (Borrelia garinii; [20]) was 0.12 µg/mL (≈ 0.328 µM).
With CO/N=C(\C(=O)N[C@@H]1C(=O)N2C(C(=O)O)=C(CSc3nc(=O)c(=O)[nH]n3C)CS[C@H]12)c1csc(N)n1 [Ceftriaxone] the MIC [1] was 0.5 µg/mL (≈ 0.902 µM), the MIC [2] was 1 µg/mL (≈ 1.8 µM) and the MIC [3] was < 0.01 µg/mL. For the same compound, the MIC [4, 17] was 0.25 µg/mL (≈ 0.451 µM), the MIC (Escherichia coli MG1655; [18]) was 0.06 µg/mL (≈ 0.108 µM) and the MIC [5] was 0.12 µg/mL (≈ 0.216 µM). It also gave an MIC [6, 19] of 32 µg/mL (≈ 57.7 µM), an MIC [7] of 128 µg/mL (≈ 231 µM) and an MIC [9] of 64 µg/mL (≈ 115 µM). The “Change of MIC on overexpression of bmpD in B. burgdorferi” value (“Change of MIC on overexpression of bmpD” below) [11] was “no effect”, the “Change of MIC on overexpression of bmpD” value ([11]; listed as ceftriaxone) was “remained unchanged” and the MIC [10] was 0.01 µg/mL (≈ 0.018 µM). The MIC (Borrelia garinii; [20]) was 0.01 µg/mL (≈ 0.018 µM).
With C[C@H]1c2cccc(O)c2C(=O)C2=C(O)[C@]3(O)C(=O)C(C(N)=O)=C(O)[C@@H](N(C)C)[C@@H]3[C@@H](O)[C@@H]21 [Doxycycline] the MIC [1] was 0.12 µg/mL (≈ 0.27 µM), the MIC [2] was 0.03 µg/mL (≈ 0.0675 µM) and the MIC [3] was 0.25 µg/mL (≈ 0.563 µM). It also gave an MIC [4, 17] of 4 µg/mL (≈ 9 µM), an MIC (Escherichia coli MG1655; [18]) of 2 µg/mL (≈ 4.5 µM) and an MIC [5] of 0.25 µg/mL (≈ 0.563 µM). For the same compound, the MIC [6, 19] was 8 µg/mL (≈ 18 µM), the MIC [7] was 1 µg/mL (≈ 2.25 µM) and the MIC [8] was 0.01 µg/mL (≈ 0.0225 µM). The MIC [9] was 8 µg/mL (≈ 18 µM), the “B. burgdorferi culture (% positive)” value (B. burgdorferi N40; 100 mg/kg) was 0% and the “Mean # of B. burgdorferi/10 mg of skin tissue (qPCR)” value (B. burgdorferi N40; 100 mg/kg) was <1 B. burgdorferi/10 mg of skin t. The “Culture positive (%)” value (B. burgdorferi N40; daily dose 200 mg/kg/day) was 0%, the MIC [10] was 0.25 µg/mL (≈ 0.563 µM) and the MIC (Borrelia garinii; [20]) was 0.12 µg/mL (≈ 0.27 µM).
With Hygromycin A the “Minimum inhibitory concentration (MIC)” value [1] was 1 µg/mL, the “Minimum inhibitory concentration (MIC)” value [2] was 8 µg/mL and the “Minimum inhibitory concentration (MIC)” value ([3]; Clostridium perfringens KLE 2326, anaerobic, stool isolate) was 8 µg/mL. The MIC ([4]; Shigella sonnei) was 64 µg, the “Minimum inhibitory concentration (MIC)” value ([4]; Shigella sonnei ATCC 25931, anaerobic) was 64 µg/mL and the MIC (Escherichia coli MG1655) was 128 µg. For the same compound, the “Minimum inhibitory concentration (MIC)” value (Escherichia coli MG1655) was 128 µg/mL, the “Minimum inhibitory concentration (MIC)” value [5] was 16 µg/mL and the MIC ([6]; Lactobacillus reuteri) was 32 µg. The “Minimum inhibitory concentration (MIC)” value ([6]; Lactobacillus reuteri ATCC 23272, anaerobic) was 32 µg/mL, the “Minimum inhibitory concentration (MIC)” value [7] was 64 µg/mL and the “Minimum inhibitory concentration (MIC)” value [8] was 64 µg/mL. The “Minimum inhibitory concentration (MIC)” value [9] was >128 µg/mL, the MIC (B. turcica KLEX1; B. turcica KLEX1, stable hygromycin A resistance) was 8 µg/mL and the “MIC increase as compared to wild type parent strain” value (B. turcica KLEX1; B. turcica KLEX1 vs parent) was 16 fold. The MIC (B. burgdorferi B31 KLEX2; B. burgdorferi B31 KLEX2, stable hygromycin A resistance) was 4 µg/mL, the “MIC increase as compared to wild type parent strain” value (B. burgdorferi B31 KLEX2; B. burgdorferi B31 KLEX2 vs parent) was 16 fold and the MIC (B. burgdorferi B31 KLEX2; Hygromycin A resistant B. burgdorferi (HygR) (FIG. 7B)) was 4 µg/mL. The MIC ([11]; BmpD overexpressing B. burgdorferi (FIG. 7B)) was 0.0625 µg/mL, the “Change of MIC on overexpression of bmpD” value [11] was “four-fold reduction” and the “B. burgdorferi culture (% positive)” value (B. burgdorferi N40; 200 mg/kg) was 0%. For the same compound, the “Mean # of B. burgdorferi/10 mg of skin tissue (qPCR)” value (B. burgdorferi N40; 200 mg/kg) was <1 B. burgdorferi/10 mg of skin t, the “Culture positive (%)” value (B. burgdorferi N40; daily dose 100 mg/kg/day) was 0% and the “Clearance of B. burgdorferi infection by consuming baits” value (B. burgdorferi N40; baits, FIG. 10) was “efficiently cleared”. For the same compound, the “Culture positive (%)” value (B. burgdorferi; total daily dose 100 mg/kg/day) was 100%, the “Culture positive (%)” value (B. burgdorferi; total daily dose 200 mg/kg/day) was 0% and the IC50 (HepG2) was >512 µg/mL. For the same compound, the “Activity against Brachyspira hyodysenteriae” value [12] was “good activity”, the “Minimum inhibitory concentration (MIC)” value [13] was 4 µg/mL and the MIC (Escherichia coli Nissle) was >128 µg. The MIC ([14]; E. coli ΔtolC, no efflux) was 16 µg/mL, the “Decrease in MIC on addition of adenosine to E. coli” value ([14]; adenosine 2.5-2500 μM, concentration-dependent) was “up to 8 fold” and the MIC [15] was 16 µg/mL. The “Reduction of E. coli MIC on inducing expression of BmpD” value [16] was 8 fold, the MIC (Borrelia garinii; B. garinii) was 0.25 µg/mL and the MIC (Borrelia garinii; Borrelia garinii) was 0.25 µg. The “Minimum inhibitory concentration (MIC)” value (Borrelia garinii; Borreliella garinii, microaerophilic) was 0.25 µg/mL, the MIC (Treponema pallidum) was 0.03 µg and the “Minimum inhibitory concentration (MIC)” value (Treponema pallidum) was 0.03 µg/mL. For the same compound, the MIC (Treponema pallidum; monitoring spirochetes in co-culture with rabbit cells) was 0.03 µg/mL.
